Measured values: patent US5910498A, “Pyridonecarboxylic acid derivatives or salts thereof and antibacterial agents comprising the same as active ingredient” (Wakunaga Seiyaku Kabushiki Kaisha, priority 1994, dated 1999)
Converted amounts (≈) assume the structure as drawn.

Legend:
[1] = test system: female ICR mouse; test: Phototoxicity test, ear abnormality after UV irradiation; format: in vivo; conditions: 40 mg/kg i.v., UV 320-400 nm 4 hours; for Frequency (ear abnormality), 0 hour / Frequency (ear abnormality), 24 hours / Frequency (ear abnormality), 48 hours: affected/total mice; for Rating (ear abnormality), 0 hour / Rating (ear abnormality), 24 hours / Rating (ear abnormality), 48 hours: point 0 no abnormality, 1 light, 2 medium erythema, 3 heavy erythema or edema
Protocol: After a compound to be tested (40 mg/kg/10 ml) was intravenously administered to a female ICR mouse (5-6 weeks old), ultraviolet radiation (320 to 400 nm, 1.8 mW/cm^2 /sec.) was irradiated for 4 hours. […] Ear abnormality was rated point 0 for no abnormality, point 1 for light erythema, point 2 for medium erythema, and point 3 for heavy erythema or edema.

[2] = test system: P. aeruginosa IFO3445; test: Antibacterial action, MIC against P. aeruginosa IFO3445 (standard method of the Japanese Chemotherapy Society); format: cell-based; conditions: Pseudomonas aeruginosa, read-out: minimum growth-inhibition concentration (MIC)
Protocol: (§1) A minimum growth-inhibition concentration (MIC: μg/ml) was measured according to the standard method of the Japanese Chemotherapy Society (CHEMOTHERAPY, 29 (1), 76, 1981).

[3] = test system: CHL cells; test: Chromosomal aberration test, CHL cells; format: cell-based; conditions: 0 to 200 μg/ml; metabolic activation method (S9) and direct method 24 and 48 hours
Protocol: CHL cells (0.2 to 2×10^5 cells/well) suspended in an Eagle's MEM medium having 10% bovine fetal serum added thereto were incubated in a 60-mm dish. After the cells were cultured at 37° C. for 4 to 72 hours in the presence of 5% CO2, the medium was replaced by a medium containing an agent in a different concentration and culturing was continued under the same conditions. In the case of a metabolic activation method (S9 added medium), after 6 hours of culturing, the medium was replaced by a medium free of an agent and S9 and culturing was continued for a further 18 hours. In the case of a direct method, the cells were cultured in two ways for 24 hours and 48 hours. At the end of culturing, a chromosome sample was prepared according to the method prescribed by the Japan Surrounding Mutagen society.

[4] = test system: S. aureus 209P; test: Antibacterial action, MIC against S. aureus 209P (standard method of the Japanese Chemotherapy Society); format: cell-based; conditions: Staphylococcus aureus, read-out: minimum growth-inhibition concentration (MIC)
Protocol: as §1

| Compound | MIC [2] [µg/mL] | Chromosomal aberration (rate of structural aberration) [3] | MIC [4] [µg/mL] | Frequency (ear abnormality), 0 hour [1] | Rating (ear abnormality), 0 hour [1] | Frequency (ear abnormality), 24 hours [1] | Rating (ear abnormality), 24 hours [1] | Frequency (ear abnormality), 48 hours [1] | Rating (ear abnormality), 48 hours [1] |
| --- | --- | --- | --- | --- | --- | --- | --- | --- | --- |
| Nc1cc(-n2cc(C(=O)O)c(=O)c3cc(F)c(N4CC[C@H](N)C4)nc32)c(F)cc1F [Example 48, 1-(3-amino-4,6-difluorophenyl)-7-[(3S)-3-aminopyrrolidin-1-yl]-6-fluoro-1,4-dihydro-4-oxo-1,8-naphthyridine-3-carboxylic acid] | 0.1 (≈ 0.238 µM) | negative | 0.025 (≈ 0.0596 µM) | 0/3 | 0 | 0/3 | 0 | 0/3 | 0 |
| C[C@@H]1CN(c2nc3c(cc2F)c(=O)c(C(=O)O)cn3-c2cc(N)c(F)cc2F)C[C@H]1N [Example 56, 1-(3-amino-4,6-difluorophenyl)-7-[(3S,4R)-3-amino-4-methylpyrrolidin-1-yl]-6-fluoro-1,4-dihydro-4-oxo-1,8-naphthyridine-3-carboxylic acid] | 0.1 (≈ 0.231 µM) | – | 0.025 (≈ 0.0577 µM) | – | – | – | – | – | – |
| Nc1cc(-n2cc(C(=O)O)c(=O)c3cc(F)c(N4CC[C@H](N)C4)cc32)c(F)cc1F [Example 60, 1-(3-amino-4,6-difluorophenyl)-7-[(3S)-3-aminopyrrolidin-1-yl]-6-fluoro-1,4-dihydro-4-oxoquinoline-3-carboxylic acid] | 0.1 (≈ 0.239 µM) | – | 0.013 (≈ 0.0311 µM) | – | – | – | – | – | – |
| Nc1cc(-n2cc(C(=O)O)c(=O)c3cc(F)c(N4CC(N)C4)nc32)c(F)cc1F [Example 117, 7-(3-aminoazetidin-1-yl)-1-(3-amino-4,6-difluorophenyl)-6-fluoro-1,4-dihydro-4-oxo-1,8-naphthyridine-3-carboxylic acid] | 0.1 (≈ 0.247 µM) | negative | 0.05 (≈ 0.123 µM) | 0/3 | 0 | 0/3 | 0 | 0/3 | 0 |
| Nc1cc(-n2cc(C(=O)O)c(=O)c3cc(F)c(N4CC(N)C4)c(F)c32)c(F)cc1F [Example 150, 7-(3-aminoazetidin-1-yl)-1-(3-amino-4,6-difluorophenyl)-6,8-difluoro-1,4-dihydro-4-oxoquinoline-3-carboxylic acid] | 0.2 (≈ 0.474 µM) | – | 0.025 (≈ 0.0592 µM) | 0/3 | 0 | 0/3 | 0 | 0/3 | 0 |
| Nc1cc(-n2cc(C(=O)O)c(=O)c3cc(F)c(N4CC(N)C4)c(Cl)c32)c(F)cc1F [Example 152, 7-(3-aminoazetidin-1-yl)-1-(3-amino-4,6-difluorophenyl)-8-chloro-6-fluoro-1,4-dihydro-4-oxoquinoline-3-carboxylic acid] | 0.05 (≈ 0.114 µM) | – | < 0.013 | 0/3 | 0 | 0/3 | 0 | 0/3 | 0 |
| CC1(N)CN(c2c(F)cc3c(=O)c(C(=O)O)cn(-c4cc(N)c(F)cc4F)c3c2Cl)C1 [Example 156, 1-(3-amino-4,6-difluorophenyl)-7-(3-amino-3-methylazetidin-1-yl)-8-chloro-6-fluoro-1,4-dihydro-4-oxoquinoline-3-carboxylic acid] | 0.1 (≈ 0.221 µM) | – | < 0.013 | – | – | – | – | – | – |

The next lines start with results.

| MIC [2] [µg/mL] | Chromosomal aberration (rate of structural aberration) [3] | MIC [4] [µg/mL] | Compound | Frequency (ear abnormality), 0 hour [1] | Rating (ear abnormality), 0 hour [1] | Frequency (ear abnormality), 24 hours [1] | Rating (ear abnormality), 24 hours [1] | Frequency (ear abnormality), 48 hours [1] | Rating (ear abnormality), 48 hours [1] |
| --- | --- | --- | --- | --- | --- | --- | --- | --- | --- |
| 0.1 (≈ 0.221 µM) | – | < 0.013 | CNC1CN(c2c(F)cc3c(=O)c(C(=O)O)cn(-c4cc(N)c(F)cc4F)c3c2Cl)C1 [Example 157, 1-(3-amino-4,6-difluorophenyl)-8-chloro-6-fluoro-7-(3-methylaminoazetidin-1-yl)-1,4-dihydro-4-oxoquinoline-3-carboxylic acid] | – | – | – | – | – | – |
| 0.2 (≈ 0.46 µM) | – | 0.025 (≈ 0.0576 µM) | Nc1cc(-n2cc(C(=O)O)c(=O)c3c(O)c(F)c(N4CC[C@H](N)C4)cc32)c(F)cc1F [Example 160, 1-(3-amino-4,6-difluorophenyl)-7-[(3S)-3-aminopyrrolidin-1-yl]-6-fluoro-5-hydroxy-1,4-dihydro-4-oxoquinoline-3-carboxylic acid] | 0/3 | 0 | 0/3 | 0 | 0/3 | 0 |
| 0.2 (≈ 0.463 µM) | – | 0.013 (≈ 0.0301 µM) | Cc1c(F)c(N2CC[C@H](N)C2)cc2c1c(=O)c(C(=O)O)cn2-c1cc(N)c(F)cc1F [Example 162, 1-(3-amino-4,6-difluorophenyl)-7-[(3S)-3-aminopyrrolidin-1-yl]-6-fluoro-5-methyl-1,4-dihydro-4-oxoquinoline-3-carboxylic acid] | – | – | – | – | – | – |
| 0.39 (≈ 0.965 µM) | – | 0.05 (≈ 0.124 µM) | NC1CCN(c2nc3c(cc2F)c(=O)c(C(=O)O)cn3-c2ccc(F)cc2F)C1 (stereo not drawn) [tosufloxacin, reference compound] | 4/5 | 1.8 | 4/5 | 0.8 | 1/5 | 0.2 |
